Results published in patent US20250032476A1, “ALPHA-2A ADRENERGIC RECEPTOR MODULATORS AND USES THEREOF” (The Regents of the University of California, priority 2021, published 2025).
Where “and” joins values, the source holds several entries; their conditions need not be identical. Equal values may be shown once. Entries after “also recorded” stand apart in the source; their conditions may differ. Where a name gives a salt, the structure may show the parent alone. Read-outs that look alike come from different tables or passages of the source. Values belong to the compound of their own block, whether it stands above or below them.

Experiments:
human α2AAR [1] = target: T1, human α2AAR (Homo sapiens (Human), UniProt P08913); assay: Radioligand competition binding to human α2AAR (HEK293T membranes, [3H]RX82,1002); details: for Ki: human α2AAR
SNI mice = assay: Spared-nerve injury (SNI) model of neuropathic pain, von Frey mechanical thresholds; type: in vivo; details: for Effect of atipamezole on the agonist's effect in SNI mice: atipamezole 2 mg/kg, 15 minutes prior
Experimental: Spared-nerve injury (SNI) model of neuropathic pain. Under isoflurane anesthesia, two of the three branches of the sciatic nerve were ligated and transected distally, leaving the sural nerve intact. Behavior was tested 7 to 14 days after injury and in situ hybridization was performed one week post-injury.

human α2AAR [2] = target: T1, human α2AAR; assay: Gαi G protein activation, BRET biosensor assay in HEK293T cells; details: for Emax: HEK-293T
[3] = target: T2, ALPHA-2A ADRENERGIC RECEPTOR (Homo sapiens (Human), UniProt P08913); assay: Arrestin recruitment; type: cell-based; details: Tables 7-9
[4] = target: T2, ALPHA-2A ADRENERGIC RECEPTOR; assay: Gi recruitment (G protein); type: cell-based
human α2AAR [5] = target: T1, human α2AAR; assay: β-arrestin-2 recruitment, BRET biosensor assay in HEK293T cells; details: HEK-293T
[6] = Pharmacokinetics in mice (plasma, brain, CSF); type: in vivo
Experimental: Pharmacokinetics. Pharmacokinetic experiments were performed by Bienta (Enamine Biology Services) in accordance with Enamine pharmacokinetic study protocols and Institutional Animal Care and Use Guidelines (protocol number 1-2/2020). […] In each compound study, nine time points (5, 15, 30, 60, 120, 240, 360, 480 and 1440 min) were collected, each of the time point treatment group included 3 animals. There was also a control group of one animal. In the ‘9087, ‘7075, ‘4622 studies, male C57BL/6N mice were used, for PS75 CD-1 mice, and for ‘2998 male Balb/cAnN mice. For all compound studies the animals were randomly assigned to the treatment groups before the pharmacokinetic study; all animals were fasted for 4 h before dosing. For injections, ‘9087 was dissolved in Captisol—water (40%:60%, w/v), ‘4622 was dissolved in a 20% Kolliphor HS—physiological saline solution, and ‘7075, PS75, and ‘2998 were dissolved in a 20% 2-HPBCD—aqueous solution. The batches of working formulations were prepared 10 minutes prior to the in vivo study.
(§1) Mice were injected i.p. with 2,2,2-tribromoethanol at 150 mg/kg prior to drawing CSF and blood. CSF was collected under a stereomicroscope from cisterna magna using 1 mL syringes. Blood collection was performed from the orbital sinus in microtainers containing K3EDTA. Animals were sacrificed by cervical dislocation after the blood samples collection. Blood samples were centrifuged 10 min at 3000 rpm. Brain samples (right lobe) were weighed and transferred into 1.5 ml tubes. All samples were immediately processed, flash-frozen and stored at −70° C. until subsequent analysis.
Plasma samples (40 μL) were mixed with 200 μL of internal standard (IS) solution. After mixing by pipetting and centrifuging for 4 min at 6000 rpm, 4 μL of each supernatant was injected into the LC-MS/MS system. Solutions of internal standards were used to quantify compounds in the plasma samples. […] After this, the samples were centrifuged for 4 min at 14,000 rpm, and supernatant was injected into LC-MS/MS system. CSF samples (2 μL) were mixed with 40 μL of an internal stock solution. After mixing by pipetting and centrifuging for 4 min at 6,000 rpm, 5 μL of each supernatant was injected into LC-MS/MS system.
(§2) Analyses of plasma, brain and CSF samples were conducted at Enamine/Bienta. The concentrations of compounds in plasma and brain samples were determined using high performance liquid chromatography/tandem mass spectrometry (HPLC-MS/MS). Data acquisition and system control was performed using Analyst 1.5.2 software (AB Sciex, Canada). […] Pharmacokinetic data analysis was performed using noncompartmental, bolus injection or extravascular input analysis models in WinNonlin 5.2 (PharSight).
as §1, with “mL” for “ml”
as §2
Additional pharmacokinetic experiments were performed by Sai Life Sciences (Hyderabad, India) in accordance with the Sai Study Protocol SAIDMPK/PK-22-04-0340. […] Testing was done in C57BL/6 mice.

CFA mice = assay: Complete Freund's Adjuvant (CFA) inflammatory pain model, Hargreaves test; details: mouse, in vivo
α2AAR F427^7.39 mutant = α2AAR F427^7.39 mutant (Homo sapiens (Human), UniProt P08913, F427A); assay: Gi activation (BRET) at α2AAR F427^7.39 mutant; type: cell-based
Experimental: (§3) Investigating the sensitivity of selected ligands to the receptor mutants α2AAR-D128^3.32A, α2AAR-D128^3.32T, α2AAR-D128^3.32L, α2AAR-S215^5.42A, α2AAR-Y409^6.55A, α2AAR-Y409^6.55T, α2AAR-Y409^6.55F, α2AAR-F427^7.39F, α2AAR-Y431^7.43A, and α2AAR-Y431^7.43F was determined by monitored G protein stimulation as described above transfecting the appropriate receptor together with Gαi1-RLucII and Gβ1/Gγ1-GFP10. […] Three to ten experiments were done in duplicate.
(§4) The sensitivity of selected ligands to the receptor mutants α2AAR-D128^3.32A, α2AAR-D128^3.32T, α2AAR-D128^3.32L, α2AAR-S215^5.42A, α2AAR-Y409^6.55A, α2AAR-Y409^6.55T, α2AAR-Y409^6.55F, α2AAR-F427^7.39F, α2AAR-Y431^7.43A, and α2AAR-Y431^7.43F was monitored by G protein activation as described above transfecting the appropriate receptor together with Gαi1-RLucII and Gβ1/Gγ2-GFP10. […] Similarly, the effect of the α2AAR-D128^3.32A, α2AAR-S215^5.42A, α2AAR-Y409^6.55A, α2AAR-Y409^6.55F, α2AAR-F427^7.39F, α2AAR-Y431^7.43A, and α2AAR-Y431^7.43F mutations on arrestin recruitment was evaluated as described above transfecting the appropriate receptor together with CAAX-rGFP, GRK2 and β-arrestin-2-RLucII. Data was analyzed as ligand induced changes in BRET compared to vehicle (deltaBRET). Three to seven experiments were done in duplicate.

mice [7] = assay: Rotarod motor test (motor impairment and sedation); type: in vivo
analgesia in vivo = details: result in words, Table 6
human α2AAR [8] = target: T1, human α2AAR; assay: α2AAR internalization assay with rGFP-CAAX and rGFP-FYVE biosensors; type: cell-based; details: α2AAR-RlucII/rGFP-CAAX biosensor
mice [9] = assay: Tail flick (50° C.) acute thermal pain assay; type: in vivo
[10] = Metabolic stability in male rat liver microsomes; type: in vitro ADME; details: 1 hour
naïve mice = assay: Mechanical thresholds (von Frey) in naïve (uninjured) mice; details: mouse, in vivo
α2CAR = α2CAR (Homo sapiens (Human), UniProt P18825); assay: Radioligand binding to α2C adrenergic receptor; details: saturation binding
murine α2AAR = murine α2AAR (Mus musculus (Mouse), UniProt Q01338); assay: Radioligand competition binding to murine α2AAR; details: saturation binding
human α2BAR = human α2BAR (Homo sapiens (Human), UniProt P18089); assay: Radioligand competition binding to human α2BAR; details: saturation binding
α2AAR-Y431^7.43A/F = α2AAR-Y431^7.43A/F (Homo sapiens, UniProt P08913, Y431A); assay: Gi activation (BRET) at α2AAR Y431^7.43 mutants; type: cell-based
Experimental: as §3, §4

[11] = mean ± s.e.m., read-out: Ki for α2AAR
[12] = Gαi EC50, BRET biosensor, HEK293T, human α2AAR
[13] = C57BL/6N ('9087, '7075, '4622), CD-1 (PS75), mouse, CSF, ip, I.P. 10 mg/kg, read-out: T ½ CSF (converted)
[14] = mouse, brain, ip, I.P. 10 mg/kg, read-out: T ½ Brain (converted)
[15] = mouse, plasma, ip, I.P. 10 mg/kg
[16] = mouse, plasma, ip, I.P. 10 mg/kg, read-out: T ½ Plasma (converted)
[17] = C57BL/6N ('9087), C57BL/6 (PS75), mouse, plasma, iv, I.V. 10 mg/kg
[18] = C57BL/6N ('9087), C57BL/6 (PS75), mouse, plasma, po, P.O. 30 mg/kg

T2 sequence (P08913 whole entry): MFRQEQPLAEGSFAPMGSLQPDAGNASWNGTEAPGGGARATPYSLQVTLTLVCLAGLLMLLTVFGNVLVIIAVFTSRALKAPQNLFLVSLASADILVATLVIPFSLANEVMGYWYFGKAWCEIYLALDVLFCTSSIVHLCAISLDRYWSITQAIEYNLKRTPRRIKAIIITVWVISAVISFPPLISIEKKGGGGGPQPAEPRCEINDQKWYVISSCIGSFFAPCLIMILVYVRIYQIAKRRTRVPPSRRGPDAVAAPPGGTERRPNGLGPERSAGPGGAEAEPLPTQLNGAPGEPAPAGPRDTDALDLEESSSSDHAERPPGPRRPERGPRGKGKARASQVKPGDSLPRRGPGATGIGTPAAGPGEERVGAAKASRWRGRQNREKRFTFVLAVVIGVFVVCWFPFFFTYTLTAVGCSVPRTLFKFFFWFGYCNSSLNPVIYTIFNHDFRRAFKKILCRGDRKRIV
T1 sequence (P08913 whole entry): as above
Chain of α2CAR (P18825 whole entry): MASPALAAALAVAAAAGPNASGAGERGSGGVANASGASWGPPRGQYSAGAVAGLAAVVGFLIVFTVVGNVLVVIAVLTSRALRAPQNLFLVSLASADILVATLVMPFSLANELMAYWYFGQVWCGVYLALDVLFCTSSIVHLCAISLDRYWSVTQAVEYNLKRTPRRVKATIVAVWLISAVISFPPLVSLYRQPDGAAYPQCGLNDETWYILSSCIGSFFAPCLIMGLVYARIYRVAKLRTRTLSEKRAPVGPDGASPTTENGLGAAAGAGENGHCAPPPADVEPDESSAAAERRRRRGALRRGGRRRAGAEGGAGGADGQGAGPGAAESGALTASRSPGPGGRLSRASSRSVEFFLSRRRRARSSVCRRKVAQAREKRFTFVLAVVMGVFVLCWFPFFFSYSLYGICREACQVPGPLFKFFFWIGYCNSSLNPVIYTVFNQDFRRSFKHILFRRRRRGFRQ
Chain of human α2BAR (P18089 whole entry): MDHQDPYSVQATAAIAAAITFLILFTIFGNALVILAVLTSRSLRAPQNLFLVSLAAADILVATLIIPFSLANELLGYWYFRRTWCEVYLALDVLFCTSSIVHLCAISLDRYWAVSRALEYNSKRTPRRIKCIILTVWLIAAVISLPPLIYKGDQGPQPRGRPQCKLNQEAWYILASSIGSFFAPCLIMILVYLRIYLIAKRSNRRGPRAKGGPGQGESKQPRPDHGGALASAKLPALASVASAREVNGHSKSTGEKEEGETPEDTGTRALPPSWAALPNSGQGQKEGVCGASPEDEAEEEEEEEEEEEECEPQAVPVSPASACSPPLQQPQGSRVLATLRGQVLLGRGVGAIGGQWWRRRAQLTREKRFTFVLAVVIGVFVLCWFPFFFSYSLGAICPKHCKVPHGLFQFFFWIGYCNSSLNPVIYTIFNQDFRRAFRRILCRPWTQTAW
Chain of murine α2AAR (Q01338 whole entry): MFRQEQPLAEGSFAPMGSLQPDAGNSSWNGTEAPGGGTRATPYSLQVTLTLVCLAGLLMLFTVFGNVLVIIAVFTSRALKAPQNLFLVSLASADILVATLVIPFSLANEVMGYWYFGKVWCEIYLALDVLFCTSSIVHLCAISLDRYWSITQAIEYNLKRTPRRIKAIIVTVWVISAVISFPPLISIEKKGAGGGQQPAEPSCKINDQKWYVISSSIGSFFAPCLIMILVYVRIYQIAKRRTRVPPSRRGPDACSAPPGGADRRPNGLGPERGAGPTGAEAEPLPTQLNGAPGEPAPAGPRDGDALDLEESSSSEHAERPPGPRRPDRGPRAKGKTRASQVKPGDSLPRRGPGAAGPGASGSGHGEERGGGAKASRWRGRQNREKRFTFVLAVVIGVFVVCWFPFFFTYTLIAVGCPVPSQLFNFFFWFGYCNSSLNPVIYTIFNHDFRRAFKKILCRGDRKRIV
Chain of α2AAR F427^7.39 mutant (P08913 whole entry F427A): as the sequence (P08913 whole entry) above, with F427A counted along it

Compound: C1=C(c2ccc3c(c2)CC3)CNCC1 [Compound 4622, 5-(Bicyclo[4.2.0]octa-1,3,5-trien-3-yl)-1,2,3,6-tetrahydropyridine]
- Ki (human α2AAR [1]; [11]): 12 ± 3.6 nM
- Effect of atipamezole on the agonist's effect in SNI mice (SNI mice): reversed by atipamezole
- Mechanical thresholds / anti-allodynic effect in SNI mice (SNI mice; systemic injection): exhibited anti-allodynic effects
- EC50 (human α2AAR [2]; [12]): 9.7 ± 2.4 nM
- Emax (human α2AAR [2]; read-out: Gαi Emax): 74 ± 4%
- Emax [3]: < 5%
- EC50 [4]: 45 nM
- Emax ([4]; Gi recruitment, Tables 7-9, read-out: G protein Emax (%)): 76%
- Emax (human α2AAR [5]; read-out: β-arrestin-2 Emax): < 5%
- half-life [6, 13]: 14.5 h
- AUC Brain ([6]; I.P. 10 mg/kg): 1160000 ng·min/mL
- AUC CSF ([6]; I.P. 10 mg/kg): 18400 ng·min/mL
- Cmax Brain ([6]; I.P. 10 mg/kg): 16200 ng/mL
- Cmax CSF ([6]; I.P. 10 mg/kg): 44.2 ng/mL
- half-life [6, 14]: 0.88 h
- AUC [6, 15]: 567 ng·h/mL
- Cmax [6, 15]: 620 ng/mL
- half-life [6, 16]: 1.01 h
- Thermal latencies / anti-hyperalgesic effect in CFA model (CFA mice): exhibited anti-hyperalgesic effects
- Gi activity at F427^7.39 substitution (α2AAR F427^7.39 mutant): eliminated
- Motor impairment / sedation in rotarod test (mice [7]; equi-analgesic doses (DEX: higher doses)): slight motor impairment

- Ki (human α2AAR [1]; mean ± SEM (Table 3), read-out: Ki): 8.2 ± 0.48 nM
- Ki (human α2AAR [1]; [11]): 8.2 ± 0.48 nM
- EC50 (human α2AAR [2]; Gi EC50 ± SE, BRET biosensor, human α2AAR (Table 3)): 4.8 nM
- EC50 (human α2AAR [2]; [12]): 4.8 nM
- Emax (human α2AAR [2]; read-out: Gi Emax ± SEM): 82%
- Emax (human α2AAR [2]; read-out: Gαi Emax): 82%
- Fold increased Gi potency compared to ‘9087 (human α2AAR [2]; TFA): 13 fold and 11 fold
- Disappearance of α2AAR from the plasma membrane (internalization) (human α2AAR [8]): no effect
- functional classification (agonist / weak agonist) ([4]; Gi recruitment, Table 6, result in words): agonist
- EC50 ([4]; Gi recruitment, Table 6, read-out: EC50): 4.8 nM
- Emax ([4]; Gi recruitment, Table 6, read-out: Emax (%)): 79%
- Emax (human α2AAR [5]; read-out: β-Arr-2 Emax @ 0.1 mM): 15%
- Emax at 100 µM (human α2AAR [5]; read-out: β-arrestin-2 Emax @ 0.1 mM): 15 ± 3%
- Metabolic stability, compound remaining [10]: remain largely unmodified after 1 hour
- AUC [6, 17]: 3460 ng·h/mL
- Cmax [6, 17]: 2590 ng/mL
- half-life ([6]; C57BL/6N ('9087), C57BL/6 (PS75), mouse, plasma, iv, I.V. 10 mg/kg, read-out: T ½ Plasma (converted)): 1.64 h
- bioavailability ([6]; C57BL/6N ('9087), C57BL/6 (PS75), mouse, plasma, oral, from I.V. 10 mg/kg and P.O. 30 mg/kg dosing): 102%
- AUC [6, 18]: 10600 ng·h/mL
- Cmax [6, 18]: 2390 ng/mL
- half-life ([6]; C57BL/6N ('9087), C57BL/6 (PS75), mouse, plasma, po, P.O. 30 mg/kg, read-out: T ½ Plasma (converted)): 3.17 h
- half-life [6, 13]: 2.55 h
- AUC Brain ([6]; I.P. 10 mg/kg): 888000 ng·min/mL
- AUC CSF ([6]; I.P. 10 mg/kg): 7790 ng·min/mL
- Cmax Brain ([6]; I.P. 10 mg/kg): 9200 ng/mL
- Cmax CSF ([6]; I.P. 10 mg/kg): 99.3 ng/mL
- half-life [6, 14]: 1.07 h
- AUC [6, 15]: 927 ng·h/mL
- Cmax [6, 15]: 679 ng/mL
- half-life [6, 16]: 0.73 h
Compound: Clc1ccc2cccc(Nc3ccncc3)c2c1 [PS75, N-(7-Chloronaphthalen-1-yl)pyridin-4-amine x TFA]
- analgesic in vivo (analgesia in vivo): analgesic in vivo
- Effect of atipamezole on the agonist's effect in SNI mice (SNI mice; TFA): not significant reversal; also recorded: partially reversed
- Mechanical thresholds / anti-allodynic effect in SNI mice (SNI mice; systemic injection): exhibited anti-allodynic effects
- Reversal of mechanical hypersensitivity in SNI mice (SNI mice; systemic injection): completely reversed the mechanical hypersensitivity
- Withdrawal latencies, tail flick (mice [9]): increased withdrawal latencies
- Mechanical thresholds of naïve (uninjured) mice (naïve mice): did increase the mechanical thresholds
- Performance in rotarod test (mice [7]; doses up to 20 mg/kg): did not have an effect

- Kd (α2CAR): 0.58 ± 0.11 nM
- Kd (human α2AAR [1]; saturation binding): 0.54 ± 0.024 nM
- Kd (murine α2AAR): 1.8 ± 0.61 nM
- Kd (human α2BAR): 2.3 ± 0.52 nM
Compound: COC1(C2=NCCN2)COc2ccccc2O1 (stereo not drawn) [[^3H]RX82,1002]

Compound: NC[C@H](O)c1ccc(O)c(O)c1 [norepinephrine]
- Gi signaling at Y431^7.43A (α2AAR-Y431^7.43A/F): essentially eliminated
